Experimental data: patent US10065990B2, “Cyclic peptide compound, and preparation method, pharmaceutical composition and use thereof” (HANGZHOU GUANYU BIO-MEDICAL CO., LTD, priority 2013, dated 2018)
Like-named read-outs stand apart in the source and are kept apart here. Values belong to the compound of their own block, whether it stands above or below them.

Columns and labels:
[1] = biological target: T1, HDAC7 (Homo sapiens, UniProt Q8WUI4); assay: HDAC biochemical activity measurement (fluorescent substrate deacetylation);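 also: fluorogenic deacetylation assay using acetyl-lysine substrate at 20 µM, enzyme and compound incubated 30 min at 37 °C, then developer added, fluorescence read at 360/460 nm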; conditions: HDAC7; 37° C. 30 minutes
T1 sequence (Q8WUI4 1-952): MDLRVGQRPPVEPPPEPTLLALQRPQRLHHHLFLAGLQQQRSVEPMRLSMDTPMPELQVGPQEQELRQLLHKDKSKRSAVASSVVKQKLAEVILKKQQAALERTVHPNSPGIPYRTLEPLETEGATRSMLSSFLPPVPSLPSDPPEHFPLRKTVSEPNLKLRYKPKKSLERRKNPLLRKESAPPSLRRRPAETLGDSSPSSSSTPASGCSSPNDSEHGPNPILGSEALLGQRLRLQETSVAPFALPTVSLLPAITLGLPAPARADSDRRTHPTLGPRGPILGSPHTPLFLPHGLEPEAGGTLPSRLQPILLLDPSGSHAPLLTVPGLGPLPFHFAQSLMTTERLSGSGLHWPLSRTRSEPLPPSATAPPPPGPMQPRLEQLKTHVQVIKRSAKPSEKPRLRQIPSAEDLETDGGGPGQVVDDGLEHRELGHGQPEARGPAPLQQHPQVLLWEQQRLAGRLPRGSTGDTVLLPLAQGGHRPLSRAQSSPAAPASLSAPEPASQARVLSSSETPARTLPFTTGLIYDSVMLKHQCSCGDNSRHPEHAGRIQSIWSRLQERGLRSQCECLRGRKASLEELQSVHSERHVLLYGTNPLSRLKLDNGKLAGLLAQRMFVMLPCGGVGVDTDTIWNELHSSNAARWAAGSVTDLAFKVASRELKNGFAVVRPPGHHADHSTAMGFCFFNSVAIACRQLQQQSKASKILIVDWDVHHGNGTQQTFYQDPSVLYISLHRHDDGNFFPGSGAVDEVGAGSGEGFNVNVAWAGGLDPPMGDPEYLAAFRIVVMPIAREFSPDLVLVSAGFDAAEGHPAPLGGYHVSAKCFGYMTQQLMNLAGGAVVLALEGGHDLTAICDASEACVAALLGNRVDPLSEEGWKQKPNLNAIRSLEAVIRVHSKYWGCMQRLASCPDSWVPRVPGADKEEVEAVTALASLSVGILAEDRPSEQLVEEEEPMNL

[2] = test system: A549 (human lung cancer cells); assay: MTT cancer cell growth inhibition; type: cell-based; conditions: Homo sapiens, A549, 72 h, read-out: GI50 A54
Description: (§1) MTT assay principle is yellow MTT can penetrate membrane into the cell, succinic dehydrogenase of the mitochondria in living cells can make exogenous MTT reduction of insoluble in water of blue-violet acicular formazan for crystallization and deposition in the cell, crystallization can be dissolved dimethyl sulfoxide (DMSO) solution, detected its absorbance at 490 nm/570 nm wavelength by enzyme-linked immunosorbent assay, which can reflect the number of cells.
(§2) Using DMEM+10% FBS culture medium or using 1640+10% FBS culture, respectively.
(§3) a) Cells were seeded in 96-well plates with the inoculation of 1500/well, 190 μl/hole, 37° C., 5% of CO2 incubator overnight;
(§4) b) The next day each well was added 10 μl of different drugs. The final concentration of drug was 10^−5˜10^−10M, three parallel holes; 37° C., 5% CO2 culture incubator for 72 hours incubation;
(§5) c) Per well was added 20 μl 5 mg/ml of MTT, 37° C., 5% CO2 culture incubator for 4 hours incubation;
(§6) d) The supernatant was discarded. Each well was added 100 μl of DMSO and oscillation;
(§7) e) 570 nm readings. Calculate cell viability. GI50 calculation based on the results.

[3] = test system: BGC-823 (human gastric cancer cells); assay: MTT cancer cell growth inhibition; type: cell-based; conditions: read-out: GI50 BG
Description: as §1, §2, §3, §4, §5, §6, §7

[4] = test system: Bel-7402 (human hepatoma cells); assay: MTT cancer cell growth inhibition; type: cell-based; conditions: Homo sapiens, Bel-7402, 72 h, read-out: GI50 Bel-7402
Description: as §1, §2, §3, §4, §5, §6, §7

[5] = test system: DU145 (human prostate cancer cells); assay: MTT cancer cell growth inhibition; type: cell-based; conditions: Homo sapiens, DU-145, 72 h, read-out: GI50 Du1
Description: as §1, §2, §3, §4, §5, §6, §7

[6] = test system: H1975 (non-small cell lung adenocarcinoma); assay: MTT cancer cell growth inhibition; type: cell-based; conditions: Homo sapiens, NCI-H1975, 72 h, read-out: GI50 H1975
Description: as §1, §2, §3, §4, §5, §6, §7

[7] = test system: HCC827 (human non-small cell lung cancer cells); assay: MTT cancer cell growth inhibition; type: cell-based; conditions: Homo sapiens, HCC827, 72 h, read-out: GI50 HCC827
Description: as §1, §2, §3, §4, §5, §6, §7

[8] = test system: HT1080 (human fibrosarcoma cells); assay: MTT cancer cell growth inhibition; type: cell-based; conditions: Homo sapiens, HT-1080, 72 h, read-out: GI50 HT1
Description: as §1, §2, §3, §4, §5, §6, §7

[9] = test system: Huh-7 (human hepatoma cells); assay: MTT cancer cell growth inhibition; type: cell-based; conditions: Homo sapiens, Huh-7, 72 h, read-out: GI50 Huh-7
Description: as §1, §2, §3, §4, §5, §6, §7

[10] = test system: K562 (human leukemia cells); assay: MTT cancer cell growth inhibition; type: cell-based; conditions: read-out: GI50 K562
Description: as §1, §2, §3, §4, §5, §6, §7

[11] = test system: KBM-5 (human chronic myelogenous leukemia); assay: MTT cancer cell growth inhibition; type: cell-based; conditions: read-out: GI50 KBM-5
Description: as §1, §2, §3, §4, §5, §6, §7

[12] = test system: KBM5-T315I (human chronic myelogenous leukemia); assay: MTT cancer cell growth inhibition; type: cell-based; conditions: Homo sapiens, 72 h, read-out: GI50 KBM5-T315I
Description: as §1, §2, §3, §4, §5, §6, §7

[13] = test system: MCF-7 (human breast cancer cells); assay: MTT cancer cell growth inhibition; type: cell-based; conditions: Homo sapiens, MCF7, 72 h, MCF-7 cells, 72 hours incubation, read-out: GI50 MCF
Description: as §1, §2, §3, §4, §5, §6, §7

[14] = test system: MDA-MB-231 (breast cancer cells); assay: MTT cancer cell growth inhibition; type: cell-based
Description: as §1, §2, §3, §4, §5, §6, §7

[15] = test system: MOLT-4 (human acute lymphoblastic leukemia cells); assay: MTT cancer cell growth inhibition; type: cell-based; conditions: Homo sapiens, MOLT-4, 72 h, read-out: GI50 Mol
Description: as §1, §2, §3, §4, §5, §6, §7

[16] = test system: N-87 (human gastric cancer cells); assay: MTT cancer cell growth inhibition; type: cell-based; conditions: read-out: GI50 N-87
Description: as §1, §2, §3, §4, §5, §6, §7

[17] = test system: PANC-1 (Pac-1, human pancreatic cancer cells); assay: MTT cancer cell growth inhibition; type: cell-based; conditions: Homo sapiens, PANC-1, 72 h, read-out: GI50 PAN
Description: as §1, §2, §3, §4, §5, §6, §7

[18] = test system: SGC-7901 (human gastric cancer cells); assay: MTT cancer cell growth inhibition; type: cell-based; conditions: read-out: GI50 SGC-7901
Description: as §1, §2, §3, §4, §5, §6, §7

[19] = test system: U937 (human leukemia cells); assay: MTT cancer cell growth inhibition; type: cell-based; conditions: Homo sapiens, U-937, 72 h, read-out: GI50 U93
Description: as §1, §2, §3, §4, §5, §6, §7

[20] = test system: lncap (prostate cancer cells); assay: MTT cancer cell growth inhibition; type: cell-based; conditions: read-out: GI50 lnca
Description: as §1, §2, §3, §4, §5, §6, §7

[21] = test system: Hela (human cervical cancer cells); assay: MTT cancer cell growth inhibition; type: cell-based; conditions: read-out: GI50 Hela
Description: as §1, §2, §3, §4, §5, §6, §7

[22] = A549 cells, MTT, 72 hours incubation
[23] = MTT, 72 hours incubation, Bel-7402 cells
[24] = DU145 cells, MTT, 72 hours incubation
[25] = MTT, 72 hours incubation, H1975 cells
[26] = MTT, 72 hours incubation, HCC827 cells
[27] = HT1080 cells, MTT, 72 hours incubation
[28] = MTT, 72 hours incubation, Huh-7 cells
[29] = MTT, 72 hours incubation, KBM5-T315I cells
[30] = MOLT-4 cells, MTT, 72 hours incubation
[31] = PANC-1 cells, MTT, 72 hours incubation
[32] = U937 cells, MTT, 72 hours incubation

IC50 HDAC7 [1]: no activity | GI50 [2, 22]: 50 nM | GI50 ([3]; Homo sapiens, BGC-823, 72 h, BGC-823 cells, MTT, 72 hours incubation): 20 nM | GI50 [4, 23]: 48 nM | GI50 [5, 24]: 10 nM | GI50 [6, 25]: 75 nM | GI50 [7, 26]: 12 nM | GI50 [8, 27]: 10 nM | GI50 [9, 28]: 39 nM | GI50 ([10]; Homo sapiens, K562, 72 h, MTT, 72 hours incubation, K562 cells): 61 nM | GI50 ([11]; Homo sapiens, KBM5, 72 h, MTT, 72 hours incubation, KBM-5 cells): 27 nM | GI50 [12, 29]: 39 nM | GI50 [13]: 30 nM | GI50 ([14]; Homo sapiens, MDA-MB-231, 72 h, read-out: GI50 MDA-MB-231, MTT, 72 hours incubation, MDA-MB-231 cells): 76 nM | GI50 [15, 30]: 20 nM | GI50 ([16]; Homo sapiens, 72 h, MTT, 72 hours incubation, N-87 cells): 97 nM | GI50 [17, 31]: 20 nM | GI50 ([18]; Homo sapiens, SGC-7901, 72 h, MTT, 72 hours incubation, SGC-7901 cells): 82 nM | GI50 [19, 32]: 60 nM | GI50 ([20]; Homo sapiens, LNCaP, 72 h, lncap cells, MTT, 72 hours incubation): 70 nM
SMILES: C=C1NC(=O)c2ccc(SC)c(n2)CNC(=O)C[C@@H](/C=C/CCSC(C)=O)OC(=O)[C@H](C(C)C)NC1=O [Compound 206]

IC50 HDAC7 [1]: no activity | GI50 [2, 22]: 110 nM | GI50 ([3]; BGC-823 cells, MTT, 72 hours incubation): 50 nM | GI50 [4, 23]: 56 nM | GI50 [5, 24]: 60 nM | GI50 [6, 25]: 58 nM | GI50 [7, 26]: 62 nM | GI50 [8, 27]: 80 nM | GI50 ([21]; Hela cells, MTT, 72 hours incubation): 0.02 µM | GI50 [9, 28]: 38 nM | GI50 ([10]; MTT, 72 hours incubation, K562 cells): 23 nM | GI50 ([11]; MTT, 72 hours incubation, KBM-5 cells): 78 nM | GI50 [12, 29]: 43 nM | GI50 ([14]; read-out: GI50 MDA-MB-231, MTT, 72 hours incubation, MDA-MB-231 cells): 74 nM | GI50 [15, 30]: 30 nM | GI50 ([16]; MTT, 72 hours incubation, N-87 cells): 42 nM | GI50 [17, 31]: 60 nM | GI50 ([18]; MTT, 72 hours incubation, SGC-7901 cells): 11 nM | GI50 [19, 32]: 30 nM | GI50 ([20]; lncap cells, MTT, 72 hours incubation): 20 nM
SMILES: C/C=C1\NC(=O)c2cc(SC)cc(n2)CNC(=O)C[C@@H](/C=C/CCSC(C)=O)OC(=O)[C@H](C)NC1=O [Compound 184]

IC50 HDAC7 [1]: no activity | GI50 [2]: 8530 nM | GI50 ([3]; Homo sapiens, BGC-823, 72 h): 5230 nM | GI50 [4]: 12700 nM | GI50 [5]: 15200 nM | GI50 [6]: 15200 nM | GI50 [7]: 16700 nM | GI50 [8]: 3970 nM | GI50 ([21]; Homo sapiens, HeLa, 72 h): 30.2 µM | GI50 [9]: 18300 nM | GI50 ([10]; Homo sapiens, K562, 72 h): 10100 nM | GI50 ([11]; Homo sapiens, KBM5, 72 h): 11200 nM | GI50 [12]: 86700 nM | GI50 ([14]; Homo sapiens, MDA-MB-231, 72 h, read-out: GI50 MDA-MB-231): 22500 nM | GI50 [15]: 10000 nM | GI50 ([16]; Homo sapiens, 72 h): 13200 nM | GI50 [17]: 7620 nM | GI50 ([18]; Homo sapiens, SGC-7901, 72 h): 12500 nM | GI50 [19]: 2350 nM | GI50 ([20]; Homo sapiens, LNCaP, 72 h): 4610 nM
SMILES: O=C(CCCCCCC(=O)Nc1ccccc1)NO [SAHA, suberoylanilide hydroxamic acid, reference compound]
